target: T1, P2X2/3 (Homo sapiens, UniProt P56373+Q9UBL9); assay: P2X2/3 FLIPR intracellular calcium assay; assay type: cell-based; details: agonist at EC75, species (human or rat) not given
T1 sequence (Q9UBL9 1-471): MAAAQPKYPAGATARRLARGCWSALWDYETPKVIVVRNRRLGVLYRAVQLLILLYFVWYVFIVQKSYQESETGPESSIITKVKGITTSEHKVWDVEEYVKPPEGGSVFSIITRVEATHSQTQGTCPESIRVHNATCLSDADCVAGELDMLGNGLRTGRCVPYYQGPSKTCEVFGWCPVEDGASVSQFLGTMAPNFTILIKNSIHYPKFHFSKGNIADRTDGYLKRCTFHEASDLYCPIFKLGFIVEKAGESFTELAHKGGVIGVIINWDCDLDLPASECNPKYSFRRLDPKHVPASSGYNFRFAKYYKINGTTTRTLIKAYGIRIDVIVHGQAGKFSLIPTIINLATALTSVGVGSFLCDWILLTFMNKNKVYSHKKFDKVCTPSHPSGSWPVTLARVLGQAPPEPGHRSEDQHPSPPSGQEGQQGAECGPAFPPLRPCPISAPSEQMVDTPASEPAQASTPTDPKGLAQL
T1 sequence (P56373 1-397): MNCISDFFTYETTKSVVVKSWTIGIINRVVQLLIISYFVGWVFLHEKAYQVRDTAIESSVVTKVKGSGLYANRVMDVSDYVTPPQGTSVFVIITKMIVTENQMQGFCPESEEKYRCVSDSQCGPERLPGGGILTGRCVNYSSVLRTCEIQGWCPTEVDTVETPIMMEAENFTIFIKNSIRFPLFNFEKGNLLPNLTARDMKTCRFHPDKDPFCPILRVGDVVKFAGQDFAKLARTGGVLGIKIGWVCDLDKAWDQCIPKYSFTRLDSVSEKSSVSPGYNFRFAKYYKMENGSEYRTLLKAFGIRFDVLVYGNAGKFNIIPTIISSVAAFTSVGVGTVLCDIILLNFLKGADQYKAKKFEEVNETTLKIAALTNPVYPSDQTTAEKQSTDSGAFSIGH
In short: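 Stable human P2X2/3 TRex293 cells (doxycycline-induced) loaded with Calcium 4 dye; compounds, 11-point half-log series from 2 mM top stock, preincubated 15 min at RT in HBSS/HEPES pH 7.4 with 1.8 mM CaCl2. Agonist added at EC75; fluorescence change versus no-compound wells gave IC50.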

IC50, 1 to 100 nM:
CCc1cnnn1-c1cc(C(=O)NCc2ccc(C)nc2)cn2c(-c3ccc(C)s3)cnc12 [Example 22]
C[C@H](NC(=O)c1cc(-n2nncc2C(F)F)c2ncc(-c3ccc(Cl)s3)n2c1)c1nnc[nH]1 [Example 38]
CC[C@H](NC(=O)c1cc(-n2nncc2C(F)F)c2ncc(-c3ccc(C)s3)n2c1)c1nnc[nH]1 [Example 52]

Source: patent publication US10316039B2, “P2X3 and/or P2X2/3 compounds and methods” (Asana Biosciences, LLC, priority 2013, dated 2019)
